Where “and” joins values, the source holds several entries; their conditions need not be identical. Equal values may be shown once.
Assay: xn = mol fraction of the nth substance listed

CCCC[N+]1(C)CCCC1.O=S(=O)([N-]S(=O)(=O)C(F)(F)F)C(F)(F)F + CO
101 kPa, frequency 0.001 MHz
Conditions | electrical conductivity [S/m]
293.15 K, x1 = 0.05 | 0.368
293.15 K, x1 = 0.26 | 1.77
293.15 K, x1 = 0.37 | 2.11
298.15 K, x1 = 0.26 | 1.93
303.15 K, x1 = 0.26 | 2.17
303.15 K, x1 = 0.42 | 2.61
308.15 K, x1 = 0.26 | 2.38
308.15 K, x1 = 0.47 | 2.85
308.15 K, x1 = 0.68 | 1.84
313.15 K, x1 = 0.32 | 2.79
313.15 K, x1 = 0.53 | 2.91
313.15 K, x1 = 0.68 | 2.08
313.15 K, x1 = 0.74 | 1.8
313.15 K, x1 = 0.84 | 1.29
313.15 K, x1 = 1 | 0.488
318.15 K, x1 = 0.21 | 2.4
318.15 K, x1 = 0.63 | 2.55
318.15 K, x1 = 0.68 | 2.27
318.15 K, x1 = 0.79 | 1.7
318.15 K, x1 = 0.84 | 1.43

101 kPa
Conditions | viscosity [mPa·s]
293.15 K, x1 = 0.05 | 1.02
293.15 K, x1 = 0.26 | 8.31
293.15 K, x1 = 0.37 | 12.95
298.15 K, x1 = 0.26 | 7.2
303.15 K, x1 = 0.26 | 6.29
303.15 K, x1 = 0.42 | 11.11
308.15 K, x1 = 0.26 | 5.53
308.15 K, x1 = 0.47 | 10.87
308.15 K, x1 = 0.68 | 16.54
313.15 K, x1 = 0.32 | 6.15
313.15 K, x1 = 0.53 | 10.55
313.15 K, x1 = 0.68 | 14.3
313.15 K, x1 = 0.74 | 16.1
313.15 K, x1 = 0.84 | 21.3
313.15 K, x1 = 1 | 35.7
318.15 K, x1 = 0.21 | 3.3
318.15 K, x1 = 0.63 | 11.22
318.15 K, x1 = 0.68 | 12.47
318.15 K, x1 = 0.79 | 15.95
318.15 K, x1 = 0.84 | 18.39
318.15 K, x1 = 0.95 | 25.2

CCCCCCCCCCCCCC[P+](CCCCCC)(CCCCCC)CCCCCC.O=S(=O)([N-]S(=O)(=O)C(F)(F)F)C(F)(F)F + O
Conditions | viscosity [mPa·s]
328.15 K, 100 kPa, x2 = 0.088 | 65.75

CCOP(=O)([O-])OCC.CC[n+]1ccn(C)c1 + O + CS(C)=O
viscosity [mPa·s], 100 kPa
Conditions | 293.15 K | 303.15 K | 313.15 K | 323.15 K
x2 = 0.004, x3 = 0.497 | – | 53 | – | –
x2 = 0.005, x3 = 0.768 | – | – | 9.6 | 7.1
x2 = 0.008, x3 = 0.886 | 5.9 | – | 3.5 | 2.9

CCCC[n+]1ccn(C)c1.O=S(=O)([O-])C(F)(F)F + NCCO + O
viscosity [mPa·s], 101 kPa
Conditions | 293.15 K | 298.15 K | 303.15 K | 308.15 K | 313.15 K | 318.15 K | 323.15 K | 328.15 K | 333.15 K
x2 = 0.1349, x3 = 0.8555 | 4.3 | 3.656 | 3.152 | 2.758 | 2.447 | 2.198 | 2.004 | 1.847 | 1.718
x2 = 0.1564, x3 = 0.8171 | – | 5.025 | 4.267 | 3.67 | 3.186 | 2.805 | 2.511 | 2.269 | 2.073
x2 = 0.2358, x3 = 0.6935 | 11.54 | 9.48 | 7.87 | 6.611 | 5.618 | 4.823 | 4.182 | 3.665 | 3.242

[Cl-].[Cl-].[Co+2] + CCCCCCCC[N+](C)(CCCCCCCC)CCCCCCCC.[Cl-] + CCCCCCCC(=O)O
Conditions | viscosity [mPa·s]
296.1 K, 101.3 kPa, x2 = 0.4, x1 = 0.2 | 428

CCCCCCCCn1cc[n+](C)c1.[Br-] + O + CCCCCC[n+]1ccn(C)c1.[Br-]
electrical conductivity, 101.3 kPa
Conditions | x2 = 0.8977, x1 = 0.04147 | x2 = 0.8977, x1 = 0.06092 | x2 = 0.8993, x1 = 0.02123 | x2 = 0.8993, x1 = 0.07955 | x2 = 0.9473, x1 = 0.02113 | x2 = 0.9473, x1 = 0.03155 | x2 = 0.9477, x1 = 0.01078 | x2 = 0.9477, x1 = 0.04155
293.15 K | 3.55 S/m and 3.56 S/m and 3.57 S/m | 3.41 S/m and 3.44 S/m (2×) | 3.68 S/m and 3.69 S/m | 3.3 S/m and 3.31 S/m and 3.32 S/m | 3.98 S/m and 4 S/m and 4.01 S/m | 3.83 S/m and 3.85 S/m and 3.87 S/m | 4.14 S/m (2×) and 4.16 S/m | 3.7 S/m and 3.71 S/m and 3.72 S/m
298.15 K | 4.11 S/m and 4.12 S/m | 3.95 S/m and 3.96 S/m and 3.98 S/m | 4.25 S/m and 4.26 S/m | 3.81 S/m and 3.83 S/m and 3.84 S/m | 4.56 S/m and 4.6 S/m and 4.61 S/m | 4.4 S/m and 4.44 S/m (2×) | 4.74 S/m and 4.76 S/m and 4.77 S/m | 4.25 S/m and 4.26 S/m and 4.28 S/m
303.15 K | 4.67 S/m and 4.68 S/m and 4.7 S/m | 4.51 S/m and 4.52 S/m and 4.54 S/m | 4.85 S/m (2×) and 4.86 S/m | 4.36 S/m and 4.37 S/m and 4.38 S/m | 5.21 S/m and 5.22 S/m and 5.24 S/m | 5.01 S/m and 5.03 S/m and 5.05 S/m | 5.39 S/m and 5.4 S/m and 5.42 S/m | 4.84 S/m and 4.86 S/m and 4.87 S/m

CCCCCCCCn1cc[n+](C)c1.F[B-](F)(F)F + CCO
Conditions | viscosity [mPa·s]
283.15 K, 101 kPa, x2 = 0.081 | 720
